Measured values published in ChEMBL document CHEMBL1201862, “PubChem BioAssay data set” (2004).
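Compound exposure: 48 hours, 5 concentrations, 96-well plates. Abbreviation: GI50, concentration required for 50% inhibition of growth.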 The source made the active and inactive calls. No stated cut-off is given here; in the data, active = GI50 up to about 1.1 µM and inactive = higher.

Assays:
Assay in all cases: NCI-60 cell line screen, 48 h
SN12C = tested on: SN12C
786-0 = tested on: 786-0
UACC-62 = tested on: UACC-62
HT-29 = tested on: HT-29
DU-145 = tested on: DU-145
SK-MEL-2 = tested on: SK-MEL-2
MDA-MB-435 = tested on: MDA-MB-435
TK-10 = tested on: TK-10
SK-OV-3 = tested on: SK-OV-3
T47D = tested on: T47D
ACHN = tested on: ACHN
PC-3 = tested on: PC-3
RPMI-8226 = tested on: RPMI-8226
HCT-15 = tested on: HCT-15
CAKI-1 = tested on: CAKI-1
NCI-H460 = tested on: NCI-H460
Malme-3M = tested on: Malme-3M
SNB-75 = tested on: SNB-75
NCI/ADR-RES = tested on: NCI/ADR-RES
UACC-257 = tested on: UACC-257
OVCAR-4 = tested on: OVCAR-4
OVCAR-5 = tested on: OVCAR-5
HOP-62 = tested on: HOP-62
HCC 2998 = tested on: HCC 2998
SK-MEL-28 = tested on: SK-MEL-28
M14 = tested on: M14
SF-268 = tested on: SF-268
UO-31 = tested on: UO-31
NCI-H522 = tested on: NCI-H522
EKVX = tested on: EKVX
HCT-116 = tested on: HCT-116
KM12 = tested on: KM12
HL-60 = tested on: HL-60
RXF 393 = tested on: RXF 393
U-251 = tested on: U-251
SW-620 = tested on: SW-620
MCF7 = tested on: MCF7
BT-549 = tested on: BT-549
COLO 205 = tested on: COLO 205
Hs-578T = tested on: Hs-578T
OVCAR-3 = tested on: OVCAR-3
HOP-92 = tested on: HOP-92
SNB-19 = tested on: SNB-19
SR = tested on: SR
MDA-MB-231 = tested on: MDA-MB-231
SF-295 = tested on: SF-295
CCRF-CEM = tested on: CCRF-CEM
A498 = tested on: A498
NCI-H23 = tested on: NCI-H23
MOLT-4 = tested on: MOLT-4
SF-539 = tested on: SF-539
A549 = tested on: A549
K562 = tested on: K562
NCI-H226 = tested on: NCI-H226
OVCAR-8 = tested on: OVCAR-8
IGROV-1 = tested on: IGROV-1
LOX IMVI = tested on: LOX IMVI

Q: What does the source list for Cc1ccc(S(=O)(=O)NC(=O)C2=C3SCCN3C(=O)N(S(=O)(=O)c3ccc(C)cc3)C2c2ccccc2)cc1 (configuration not stated)?
A: GI50 (SN12C): 49.9 µM (inactive); GI50 (786-0): 51.9 µM (inactive); GI50 (UACC-62): 37.3 µM (inactive); GI50 (HT-29): 34.4 µM (inactive); GI50 (DU-145): > 100 µM (inactive); GI50 (SK-MEL-2): 46.8 µM (inactive); GI50 (MDA-MB-435): 22.9 µM (inactive); GI50 (TK-10): > 100 µM (inactive); GI50 (SK-OV-3): 24.1 µM (inactive); GI50 (T47D): > 100 µM (inactive); GI50 (ACHN): > 100 µM (inactive); GI50 (PC-3): 33.9 µM (inactive); GI50 (RPMI-8226): 26.7 µM (inactive); GI50 (HCT-15): > 100 µM; GI50 (CAKI-1): > 100 µM (inactive); GI50 (NCI-H460): 71.1 µM (inactive); GI50 (Malme-3M): 40.6 µM (inactive); GI50 (SNB-75): 43.4 µM (inactive); GI50 (NCI/ADR-RES): > 100 µM (inactive); GI50 (UACC-257): 78.5 µM (inactive); GI50 (OVCAR-4): 58.6 µM (inactive); GI50 (OVCAR-5): 39.4 µM (inactive); GI50 (HOP-62): 59.3 µM (inactive); GI50 (HCC 2998): 12.2 µM (inactive); GI50 (SK-MEL-28): 50.2 µM (inactive); GI50 (M14): 61 µM (inactive); GI50 (SF-268): 32.3 µM (inactive); GI50 (UO-31): > 100 µM (inactive); GI50 (NCI-H522): 20.4 µM (inactive); GI50 (EKVX): > 100 µM (inactive); GI50 (HCT-116): 36.1 µM (inactive); GI50 (KM12): 28.2 µM (inactive); GI50 (HL-60): 43.2 µM (inactive); GI50 (RXF 393): 25.1 µM (inactive); GI50 (U-251): 39.3 µM (inactive); GI50 (SW-620): 47.3 µM (inactive); GI50 (MCF7): 29.9 µM (inactive); GI50 (BT-549): > 100 µM (inactive); GI50 (COLO 205): 19.9 µM (inactive); GI50 (Hs-578T): 48.4 µM (inactive); GI50 (OVCAR-3): 20 µM (inactive); GI50 (HOP-92): 28.1 µM (inactive); GI50 (SNB-19): 34.8 µM (inactive); GI50 (SR): 31.4 µM (inactive); GI50 (MDA-MB-231): 36.6 µM (inactive); GI50 (SF-295): 31.5 µM (inactive); GI50 (CCRF-CEM): 19.4 µM (inactive); GI50 (A498): > 100 µM (inactive); GI50 (NCI-H23): 40.6 µM (inactive); GI50 (MOLT-4): 44.9 µM (inactive); GI50 (SF-539): 25.6 µM (inactive); GI50 (A549): > 100 µM (inactive); GI50 (K562): 36.7 µM (inactive); GI50 (NCI-H226): > 100 µM (inactive); GI50 (OVCAR-8): 77.1 µM (inactive); GI50 (IGROV-1): 46.9 µM (inactive); GI50 (LOX IMVI): 39.4 µM (inactive)
